Results reported in the NIST ThermoML archive (doi:10.1021/je060271a).

Conditions: 323.15 K, Liquid, Vibrating tube method

CCCC(=O)OCC(COC(=O)CCC)(COC(=O)CCC)COC(=O)CCC [pentaerythritol tetrabutyrate]
Conditions	mass density [kg/m3]
6544.6 kPa	1029.7
6573.1 kPa	1029.6
6601.4 kPa	1029.8
6630.4 kPa	1029.8
6664.6 kPa	1029.8
6693.3 kPa	1029.7
6722.9 kPa	1029.8
6752.8 kPa	1029.7
6788.3 kPa	1029.8
6819.1 kPa	1029.9
6850.5 kPa	1029.9
6881.6 kPa	1030
6918.6 kPa	1030
6950.2 kPa	1029.9
6982.9 kPa	1030
7021.5 kPa	1030
7051.8 kPa	1029.9
7078.5 kPa	1030
7111.5 kPa	1030.1
7138.8 kPa	1030.1
7165.9 kPa	1030.2
7198.9 kPa	1030.1
7227.1 kPa	1030.2
7255.4 kPa	1030.1
7284.6 kPa	1030.2
7319.5 kPa	1030.1
7348.8 kPa	1030.3
7378.7 kPa	1030.3
7408.9 kPa	1030.2
7446.2 kPa	1030.3
7476.6 kPa	1030.3
7507.3 kPa	1030.3
7538.2 kPa	1030.3
7569.8 kPa	1030.5
7607.4 kPa	1030.5
7638.7 kPa	1030.6
7671.1 kPa	1030.6
7709.5 kPa	1030.4
7742.2 kPa	1030.6
7775.2 kPa	1030.6
7809.6 kPa	1030.6
7843.9 kPa	1030.6
7885.3 kPa	1030.6
7920.5 kPa	1030.6
7953.8 kPa	1030.7
7983 kPa	1030.8
8018.4 kPa	1030.7
8049.1 kPa	1030.6
8080.2 kPa	1030.7
8117.6 kPa	1030.9
8149.2 kPa	1030.7
8176.4 kPa	1030.7
8203 kPa	1030.9
8233.4 kPa	1031
8258.9 kPa	1030.8
8285.5 kPa	1030.9
8312 kPa	1031.1
8343.3 kPa	1030.9
8369.3 kPa	1030.9
8401.7 kPa	1031.1
8428.3 kPa	1031.1
8455.7 kPa	1031
8482.6 kPa	1031.1
8515.8 kPa	1031.2
8543.4 kPa	1031.1
8571.8 kPa	1031.1
8605.3 kPa	1031.2
8634.6 kPa	1031.2
8664.9 kPa	1031.3
8693.6 kPa	1031.2
8722 kPa	1031.2
8757 kPa	1031.2
8785.7 kPa	1031.2
8815.3 kPa	1031.3
8851 kPa	1031.3
8880.8 kPa	1031.3
8916.7 kPa	1031.4
8947.2 kPa	1031.4
8977.7 kPa	1031.5
9015.1 kPa	1031.4
9048.4 kPa	1031.5
9079.8 kPa	1031.5
9105.3 kPa	1031.6
9137.4 kPa	1031.5
9181.7 kPa	1031.6
9214.1 kPa	1031.5
9239.9 kPa	1031.6
9278.9 kPa	1031.6
9312 kPa	1031.6
9352.1 kPa	1031.7
9391.1 kPa	1031.5
9424.9 kPa	1031.7
9459.7 kPa	1031.8
9501.9 kPa	1031.8
9536.7 kPa	1031.9
9571.9 kPa	1031.8
9607.4 kPa	1031.8
9650.6 kPa	1031.8
9687.7 kPa	1031.8
9732.6 kPa	1032
9765 kPa	1032
9791.2 kPa	1032
9822.2 kPa	1031.9
9848.9 kPa	1032.1
9875.6 kPa	1032.1
9907.5 kPa	1032
9935 kPa	1032
9961.9 kPa	1032.1
9989 kPa	1032.1
10021 kPa	1032.1
10048 kPa	1032.1
10082 kPa	1032.2
10110 kPa	1032.1
10138 kPa	1032.2
10166 kPa	1032.2
10200 kPa	1032.2
10228 kPa	1032.2
10262 kPa	1032.2
10292 kPa	1032.4
10321 kPa	1032.3
10356 kPa	1032.4
10385 kPa	1032.5
10415 kPa	1032.5
10445 kPa	1032.5
10481 kPa	1032.4
10512 kPa	1032.5
10542 kPa	1032.4
10579 kPa	1032.5
10610 kPa	1032.6
10641 kPa	1032.6
10672 kPa	1032.6
10710 kPa	1032.5
10742 kPa	1032.6
10774 kPa	1032.6
10806 kPa	1032.7
10845 kPa	1032.8
10877 kPa	1032.7
10916 kPa	1032.7
10948 kPa	1032.7
10982 kPa	1032.7
11022 kPa	1032.7
11055 kPa	1032.8
11089 kPa	1032.8
11123 kPa	1032.9
11165 kPa	1032.9
11200 kPa	1032.8
11242 kPa	1032.9
11279 kPa	1033
11316 kPa	1033
11352 kPa	1033
11384 kPa	1033.1
11409 kPa	1033
11434 kPa	1033.1
11464 kPa	1033
11489 kPa	1033.1
11520 kPa	1033.2
11545 kPa	1033.1
11573 kPa	1033.1
11598 kPa	1033.2
11625 kPa	1033.2
11655 kPa	1033.2
11681 kPa	1033.3
11713 kPa	1033.3
11740 kPa	1033.2
11766 kPa	1033.3
11793 kPa	1033.3
11825 kPa	1033.4
11853 kPa	1033.3
11880 kPa	1033.5
11914 kPa	1033.4
11944 kPa	1033.4
11971 kPa	1033.4
11999 kPa	1033.4
12033 kPa	1033.4
12061 kPa	1033.5
12089 kPa	1033.5
12122 kPa	1033.6
12151 kPa	1033.6
12180 kPa	1033.6
12214 kPa	1033.5
12243 kPa	1033.7
12272 kPa	1033.6
12367 kPa	1033.8
12397 kPa	1033.7
12432 kPa	1033.7
12462 kPa	1033.8
12499 kPa	1033.8
12530 kPa	1033.9
12555 kPa	1033.8
12591 kPa	1033.9
12623 kPa	1033.9
12660 kPa	1033.9
12691 kPa	1033.9
12724 kPa	1033.9
12762 kPa	1033.9
12794 kPa	1034.1
12826 kPa	1033.9
12858 kPa	1034
12897 kPa	1034.1
12930 kPa	1034.1
12969 kPa	1034.1
13003 kPa	1034.2
13037 kPa	1034.3
13072 kPa	1034.3
13115 kPa	1034.3
13152 kPa	1034.3
13184 kPa	1034.2
13211 kPa	1034.3
13233 kPa	1034.3
13255 kPa	1034.4
13281 kPa	1034.4
13303 kPa	1034.4
13326 kPa	1034.4
13352 kPa	1034.3
13375 kPa	1034.4
13398 kPa	1034.5
13420 kPa	1034.5
13447 kPa	1034.5
13470 kPa	1034.5
13493 kPa	1034.5
13520 kPa	1034.5
13543 kPa	1034.6
13570 kPa	1034.5
13593 kPa	1034.6
13616 kPa	1034.6
13639 kPa	1034.7
13667 kPa	1034.5
13690 kPa	1034.6
13718 kPa	1034.6
13742 kPa	1034.6
13766 kPa	1034.7
13794 kPa	1034.6
13819 kPa	1034.6
13843 kPa	1034.7
13867 kPa	1034.7
13896 kPa	1034.8
13920 kPa	1034.7
13945 kPa	1034.8
13974 kPa	1034.9
13998 kPa	1034.8
14027 kPa	1034.8
14052 kPa	1034.9
14215 kPa	1035
14240 kPa	1034.9
14265 kPa	1034.9
14296 kPa	1035.1
14322 kPa	1035
14348 kPa	1035.1
14379 kPa	1035
14405 kPa	1035
14431 kPa	1035
14462 kPa	1035.1
14490 kPa	1035
14518 kPa	1035.2
14544 kPa	1035.1
14571 kPa	1035.2
14603 kPa	1035.1
14630 kPa	1035.2
14658 kPa	1035.3
14690 kPa	1035.3
14717 kPa	1035.3
14749 kPa	1035.4
14805 kPa	1035.4
14833 kPa	1035.3
14867 kPa	1035.3
14895 kPa	1035.4
14923 kPa	1035.5
14957 kPa	1035.4
14986 kPa	1035.4
15014 kPa	1035.5
15048 kPa	1035.6
15077 kPa	1035.6
15105 kPa	1035.6
15140 kPa	1035.6
15169 kPa	1035.7
15199 kPa	1035.6
15229 kPa	1035.5
15265 kPa	1035.6
15294 kPa	1035.6
15325 kPa	1035.7
15360 kPa	1035.7
15390 kPa	1035.7
15421 kPa	1035.8
15456 kPa	1035.8
15487 kPa	1035.8
15517 kPa	1035.8
15554 kPa	1035.8
15585 kPa	1035.9
15616 kPa	1035.9
15653 kPa	1036
15685 kPa	1035.9
15716 kPa	1036
15748 kPa	1036
